Data taken from patent EP3225590A1 (Université de Strasbourg, priority 2016, dated 2017).
Values joined by “and” are separate entries in the source; they are usually repeats but may differ in a detail not shown here. Identical values can stand only once. Like-named read-outs stand apart in the source and are kept apart here.

Assays:
ANR-L1 = assay: Fluorescence titration of ANR-L1 suspension with analyte, 1:1 single-site binding fit; settings: for factor weaker binding in the presence of 50 mM Trp than in the absence: ANR-L1, 50 mM Trp as potential competitor
ANR-Y1 = assay: Fluorescence titration of ANR-Y1 suspension with analyte, 1:1 single-site binding fit
ANRs = settings: 100 µM concentration; ANR-Y2, ANR-L3 and ANR-L5
ANR1 = assay: Binding of tryptophan to ANR1 at acidic pH (data not shown); settings: pH <3
CB8-D1 = CB8-D1 (cucurbit[8]uril and dye D1), in water, read-out: Kd (affinity), cited from earlier work
ANR-L2 = assay: Fluorescence titration of ANR-L2 suspension with analyte, 1:1 single-site binding fit
Excerpt: (§1) This fitting procedure was used in favour of a Stern-Volmer analysis, because linearized binding plots are known to produce errors in Kd.
(§2) Herein, FA is the intensity at a given analyte concentration and F0 is the emission intensity before analyte addition. ΔF is a measure of the relative emission increase or decrease caused by the analyte. For fully non emissive AB complexes, i.e. when the analyte A is an efficient quencher, ΔF reaches -1. The quantity cA denotes the concentration of the analyte A and cB denotes the concentration of the "binding stations" in the ANR.
(§3) The values Kd and ΔF result from the non-least square fit given the input FA, F0, cA and cB.
(§4) The concentration cA of the analyte follows directly from the concentration of the stock solution and the added volume to the cuvette with the suspension of the ANR. The concentration cB of the single binding sites per ANR suspension is a priori not known. […] This so obtained value cB was then used as a constant for the fitting of the binding isotherms of the weaker binding analytes. […] In addition, it is reassuring to note that the value of the affinity constant Kd is rather insensitive to the concentration cB.

ANR-Y2 = assay: Fluorescence titration of ANR-Y2 suspension with analyte, 1:1 single-site binding fit
Excerpt: as §1, §2, §3, §4

ANR-L3 = assay: Fluorescence titration of ANR-L3 suspension with analyte, 1:1 single-site binding fit
Excerpt: as §1, §2, §3, §4

ANR-L4 = assay: Fluorescence titration of ANR-L4 suspension with analyte, 1:1 single-site binding fit
Excerpt: as §1, §2, §3, §4

[1] = cucurbit[7]uril, ref. [9]; read-out: Kd(5-HT); cited from earlier work
[2] = 10 mM HEPES buffer (pH 7.3), ANR 250 µg/mL, >> = less than 10% change in emission intensity at >50 molar excess of analyte, error less than ±20%, read-out: Kd(ANR-L1)
[3] = 10 mM HEPES buffer (pH 7.3), ANR 250 µg/mL, >> = less than 10% change in emission intensity at >50 molar excess of analyte, error less than ±20%, read-out: Kd(ANR-Y1)
[4] = stated for the larger-cavity zeolite-Y-based receptors, printed 'with ANR-L2'
[5] = ANR-Y1 250 µg/mL, 10 mM HEPES buffer (pH 7.3), read-out: single site dissociation constant Kd
[6] = read-out: single site dissociation constant Kd, ANR-Y2 250 µg/mL, 10 mM HEPES buffer (pH 7.3)
[7] = ANR-L3 250 µg/mL in 10 mM HEPES buffer, pH 7.3 (aqueous buffer)
[8] = ANR-L1 250 µg/mL, 10 mM HEPES buffer (pH 7.3) with 50 mM tryptophan added, read-out: Kd

| Kd (ANR-L1; [2]) | Kd (ANR-Y1; [3]) | Compound | further results |
| --- | --- | --- | --- |
| > 1000 µM | > 1000 µM | NCCO [ethanolamine] | – |
| > 1000 µM | > 1000 µM | N[C@@H](CCC(=O)O)C(=O)O [glutamate] | – |
| > 1000 µM | > 1000 µM | NCC(=O)O [glycine (Gly), glycine] | – |
| > 1000 µM | > 1000 µM | N[C@@H](Cc1ccccc1)C(=O)O [phenylalanine] | – |
| > 1000 µM | > 1000 µM | NCCCCCN [cadaverine] | – |
| > 1000 µM | > 1000 µM | CC(=O)CCc1ccc(O)cc1 [raspberry ketone] | – |
| 32 µM | 0.11 µM | NC(=O)[C@@H](N)Cc1c[nH]c2ccccc12 [TrpNH2] | Kd (ANR-Y1; [5]): ~0.11 µM; Kd (ANR-Y2; [6]): 2.7 µM; Kd (CB8-D1; listed as TrpNF2): 2.2 µM; Kd (CB8-D1): ~2.2 µM |
| > 1000 µM | > 1000 µM | N[C@@H](Cc1c[nH]cn1)C(=O)O [histidine] | – |
| > 1000 µM | > 1000 µM | COc1ccc2[nH]cc(CCNC(C)=O)c2c1 [melatonin] | – |
| > 600 µM | 55 µM | CNC[C@H](O)c1cccc(O)c1 [phenylephrine] | – |
| > 1000 µM | > 1000 µM | N[C@H](CO)C(=O)O [D-serine] | – |
| > 1000 µM | > 1000 µM | N[C@@H](Cc1ccc(O)cc1)C(=O)O [tyrosine] | – |
| > 1000 µM | > 1000 µM | Oc1ccccc1O [catechol] | – |
| > 1000 µM | > 1000 µM | CC(=O)Nc1ccc(O)cc1 [paracetamol] | – |
| > 1000 µM | > 1000 µM | O=C(O)Cc1c[nH]c2ccccc12 [indole-3-acetic acid] | – |
| 3.3 µM | 0.07 µM | NCCc1c[nH]c2ccc(O)cc12 [serotonin (5-HT), serotonin] | Kd (ANR-L1; [8]): 14 µM; Kd (ANR-L1; ANR-L1 250 µg/mL, ethanolic media (ethanol with 0.2 mM acetic acid), read-out: single site dissociation constant Kd): ~25 µM; Kd (ANR-L1; ANR-L1 250 µg/mL, water and aqueous buffer, read-out: single site dissociation constant Kd): ~3 µM; factor weaker binding in the presence of 50 mM Trp than in the absence (ANR-L1): ~ 4; Kd (ANR-L1; read-out: approximated dissociation constant (Kd = 1/slope), Stern-Volmer plot, ANR-L1): 4 µM; Kd [1]: ~15 µM; Kd (ANR-Y1; [5]): 0.07 µM and ~0.07 µM; Kd (ANR-L2; read-out: approximated dissociation constant (Kd = 1/slope), Stern-Volmer plot, ANR-L2): 2 µM |
| > 1000 µM | > 1000 µM | Nc1ncnc2c1ncn2[C@@H]1O[C@H](CO)[C@@H](O)[C@H]1O [adenosine] | – |

The remaining lines, values behind:

| Compound | Kd (ANR-L1; [2]) | Kd (ANR-Y1; [3]) | further results |
| --- | --- | --- | --- |
| CN1CCCC1c1cccnc1 (stereo not drawn) [nicotine] | – | – | effect on emission intensity (ANRs): no appreciable effect |
| N[C@@H](Cc1c[nH]c2ccccc12)C(=O)O [tryptophan (Trp), tryptophan] | > 1000 µM | > 1000 µM | binding to ANR1 (ANR1): binding; binding to ANR1 (ANR1; listed as trytophane): bind; Kd (CB8-D1): ~6.3 µM |
| CNC[C@H](O)c1ccc(O)c(O)c1 [epinephrine] | – | – | Kd (ANR-L1; pH 7.3, read-out: Kd(ANR-L1)): > 600 µM; Kd (ANR-Y1; pH 7.3, read-out: Kd(ANR-Y1)): 26 µM; Kd (ANR-L2; ANR-L2, zeolite-L based): 240 µM; Kd (ANR-L2; [4]): 39 µM |
| NCCc1c[nH]c2ccccc12 [tryptamine] | 10 µM | 0.15 µM | Kd (ANR-L3; [7]): ~9 µM; Kd (ANR-L3; ANR-L3, neat chloroform (absence of acetic acid)): 15 µM; Kd (ANR-L3; read-out: single site dissociation constant Kd, ANR-L3 250 µg/mL, chloroform:acetic acid (99:1)): 4 µM; Kd (ANR-L1; [8]): 27 µM; factor weaker binding in the presence of 50 mM Trp than in the absence (ANR-L1): ~ 3; Kd (ANR-L1; read-out: single site dissociation constant Kd): 3 µM |
| NCCc1ccccc1 [phenethylamine] | – | – | Kd (ANR-L3; [7]): 190 µM; residual emission int. (ANR-L4; ANR-L4, at 25 µM of analyte): 75%; Kd (ANR-L4; ANR-L4, partial emission quenching): 19 µM |
| c1ccc2[nH]ccc2c1 [indole] | > 1000 µM | > 1000 µM | – |
| N[C@@H](Cc1ccc(O)c(O)c1)C(=O)O [L-DOPA] | > 1000 µM | > 1000 µM | – |
| NCCc1c[nH]cn1 [histamine] | – | – | Kd (ANR-L3; [7]): 360 µM |
| CCC(=O)Nc1ccc(Cl)c(Cl)c1 [propanil] | > 1000 µM | > 1000 µM | – |
| NCC(O)c1ccc(O)cc1 (stereo not drawn) [octopamine] | 40 µM | 11 µM | – |
| N[C@@H](Cc1c[nH]c2ccc(O)cc12)C(=O)O [5-HTP] | > 1000 µM | > 1000 µM | – |
| NC[C@H](O)c1ccc(O)c(O)c1 [norepinephrine] | 31 µM | 11 µM | Kd (ANR-L2; ANR-L2, zeolite-L based): 13 µM; Kd (ANR-L2; [4]): 26 µM |
| NCCc1ccc(O)cc1 [tyramine] | 27 µM | 5.7 µM | quenching of the emission of ANR-L3 (ANR-L3; titration curve shows saturation behaviour): 30% |
| CC(=O)OCC[N+](C)(C)C [acetylcholin] | > 1000 µM | > 1000 µM | – |
| NCCc1ccc(O)c(O)c1 [dopamine] | 16 µM | 3.4 µM | Kd (ANR-L3; read-out: approximated dissociation constant (Kd = 1/slope), Stern-Volmer plot, ANR-L3): 15 µM; Kd (ANR-L1; [8]): 48 µM; factor weaker binding in the presence of 50 mM Trp than in the absence (ANR-L1): ~ 3; Kd (ANR-Y1; read-out: approximated dissociation constant (Kd = 1/slope), Stern-Volmer plot, ANR-Y1): 4 µM; Kd (ANR-Y2; read-out: approximated dissociation constant (Kd = 1/slope), Stern-Volmer plot, ANR-Y2): 10 µM; Kd (ANR-Y2; [6]): 9.5 µM; Kd (ANR-L4; read-out: approximated dissociation constant (Kd = 1/slope), Stern-Volmer plot, ANR-L4): 7 µM |
